In US8426342B2, “Method for weed control in lawn” (priority 2008, dated 2013):

Legend:
Lamium amplexcaule = test: Effectivity testing against weed plants ex. 5.1, Abbott %; assay type: in vivo, Lamium amplexicaule
Description: Each plot was divided by different pre-treatments 1 week before application of the trial treatments: • A) Pre-treatment with glyphosate-isopropylammonium allowing to evaluate in this section the pre-emergence effect against weeds. • B) No pre-treatment, present winter annual weeds are received a post-emergence application.
2005, applied on dormant turf in winter
Effectivity was rated in percent (%) herbicidal effect compared with untreated control according to the method of Abbott according to the formula [(X−Y)/X]100 where X is the absolute level/scoring of the control plants, Y is the level/scoring of the treated plants. 100% efficacy means full control; 0% efficacy means no control of the weed; all ratings above 80% are usually acceptable.

Capsella bursa pastoris = test: Greenhouse herbicidal effect in weed control ex. 6.2, 2- to 3-leaves stage; assay type: in vivo; conditions: 6 g a.i./ha
Description: That means, when applying the combinations according to the invention, herbicidal effects are observed on a harmful plant species which exceed the formal total of the effects of the herbicides present when these are applied by themselves. Alternatively, it is observed in some cases that a lower application rate is required for the herbicide combination in order to achieve the same effect on a harmful plant species in comparison with the individual products.
When the data observed already exceed the formal total (=E^A) of the data in the experiments with individual applications, they likewise exceed the expected value according to Colby, which is calculated using the formula below and is likewise regarded as an indication of synergism (cf. S. R. Colby; in Weeds 15 (1967) pp. 20 to 22): E=A+B−(A·B/100)
In this formula: • A=action of active compound (A) in % at an application rate of a g of AS/ha; • B=action of active compound (B) in % at an application rate of b g of AS/ha; • E=expected value of the action of the combination (A)+(B) in % at the combined application rate a+b g of AS/ha.
The data observed in the experiments show, at suitably low dosages, an action of the combinations which exceeds the expected values according to Colby (=E^C).

Trifolium repens = test: Effectivity testing against weed plants ex. 5.2, co-formulation/granules in tall fescue turf, early post for the weed, Abbott %; assay type: in vivo; conditions: 50 g a.i./ha
Description: (§1) A co-formulation containing a mixture compounds no. […] Granules were applied with a shaker can.
Turf grass species: Festuca arundinacea, variety (tall fescue grass)
Weed species: Trifolium repens
(§2) Location: Sports turf, North Carolina, USA
(§3) Plot size: 1.4 m^2 and 3 replicates per treatment
(§4) Application timing: 27 Mar. 2007, spring application, early post for the weed
(§5) Effectivity was rated in percent (%) herbicidal effect compared with untreated control according to the method of Abbott mentioned above (see 5.1). 100% efficacy means full control; 0% efficacy means no control of the weed; all ratings above 80% are usually acceptable.

Digitaria sanguinalis = test: Effectivity testing against weed plants ex. 5.3, in bermuda grass turf, Abbott %; assay type: in vivo
Description: as §1, §2, §3, §4, §5
The application and evaluation were performed as described in example 5.2 with the following difference:
Turf grass species: Cynodon dactylon, variety (bermuda grass)
Weed species: Digitaria sanguinalis, Poa annua

For `Cc1ccc2c(c1)[C@H](Nc1nc(N)nc([C@@H](C)F)n1)[C@@H](C)C2` (stereo in doubt) [(A21)/(A22), indaziflam], the “Herbicidal effect (%) on Lamium amplexcaule, Post-emergence application without pre-treatment” value (Lamium amplexcaule; 25 g a.i./ha, 124 DAT) was 91%, the “Herbicidal effect (%) on Lamium amplexcaule, Pre-emergence application after pre-treatment” value (“Herbicidal effect (%) … after pre-treatment” for short) (Lamium amplexcaule; 25 g a.i./ha, 124 DAT) was 58% and the “Herbicidal effect (%) on Lamium amplexcaule, Post-emergence application without pre-treatment” value (Lamium amplexcaule; 25 g a.i./ha, 151 DAT) was 50%. The “Herbicidal effect (%) … after pre-treatment” value (Lamium amplexcaule; 25 g a.i./ha, 151 DAT) was 40%, the “Herbicidal effect (%) on Lamium amplexcaule, Post-emergence application without pre-treatment” value (Lamium amplexcaule; 50 g a.i./ha, 124 DAT) was 89% and the “Herbicidal effect (%) … after pre-treatment” value (Lamium amplexcaule; 50 g a.i./ha, 124 DAT) was 100%. The “Herbicidal effect (%) on Lamium amplexcaule, Post-emergence application without pre-treatment” value (Lamium amplexcaule; 50 g a.i./ha, 151 DAT) was 67%, the “Herbicidal effect (%) … after pre-treatment” value (Lamium amplexcaule; 50 g a.i./ha, 151 DAT) was 90% and the “Herbicidal effect (%) on Lamium amplexcaule, Post-emergence application without pre-treatment” value (Lamium amplexcaule; 75 g a.i./ha, 124 DAT) was 83%. For the same compound, the “Herbicidal effect (%) … after pre-treatment” value (Lamium amplexcaule; 75 g a.i./ha, 124 DAT) was 100%, the “Herbicidal effect (%) on Lamium amplexcaule, Post-emergence application without pre-treatment” value (Lamium amplexcaule; 75 g a.i./ha, 151 DAT) was 67% and the “Herbicidal effect (%) … after pre-treatment” value (Lamium amplexcaule; 75 g a.i./ha, 151 DAT) was 100%. The “Herbicidal effect (%) 7 DAT on Capsella bursa pastoris” value (Capsella bursa pastoris) was 0%, the “Herbicidal effect (%) on Trifolium repens” value (Trifolium repens; 30 DAT) was 60% and the “Herbicidal effect (%) on Trifolium repens” value (Trifolium repens; 381 DAT) was 90%. For the same compound, the “Herbicidal effect (%) on Digitaria sanguinalis” value (Digitaria sanguinalis; 12.5 g a.i./ha, 35 DAT) was 87%, the “Herbicidal effect (%) on Digitaria sanguinalis” value (Digitaria sanguinalis; 12.5 g a.i./ha, 56 DAT) was 63% and the “Herbicidal effect (%) on Digitaria sanguinalis” value (Digitaria sanguinalis; 12.5 g a.i./ha, 68 DAT) was 73%. For the same compound, the “Herbicidal effect (%) on Digitaria sanguinalis” value (Digitaria sanguinalis; 12.5 g a.i./ha, 107 DAT) was 70%, the “Herbicidal effect (%) on Digitaria sanguinalis” value (Digitaria sanguinalis; 12.5 g a.i./ha, 138 DAT) was 43% and the “Herbicidal effect (%) on Digitaria sanguinalis” value (Digitaria sanguinalis; 12.5 g a.i./ha, 180 DAT) was 57%. For the same compound, the “Herbicidal effect (%) on Digitaria sanguinalis” value (Digitaria sanguinalis; 25.0 g a.i./ha, 35 DAT) was 95%, the “Herbicidal effect (%) on Digitaria sanguinalis” value (Digitaria sanguinalis; 25.0 g a.i./ha, 56 DAT) was 96% and the “Herbicidal effect (%) on Digitaria sanguinalis” value (Digitaria sanguinalis; 25.0 g a.i./ha, 68 DAT) was 98%. For the same compound, the “Herbicidal effect (%) on Digitaria sanguinalis” value (Digitaria sanguinalis; 25.0 g a.i./ha, 107 DAT) was 97%, the “Herbicidal effect (%) on Digitaria sanguinalis” value (Digitaria sanguinalis; 25.0 g a.i./ha, 138 DAT) was 93% and the “Herbicidal effect (%) on Digitaria sanguinalis” value (Digitaria sanguinalis; 25.0 g a.i./ha, 180 DAT) was 93%. For the same compound, the “Herbicidal effect (%) on Digitaria sanguinalis” value (Digitaria sanguinalis; 50.0 g a.i./ha, 35 DAT) was 97%, the “Herbicidal effect (%) on Digitaria sanguinalis” value (Digitaria sanguinalis; 50.0 g a.i./ha, 56 DAT) was 98% and the “Herbicidal effect (%) on Digitaria sanguinalis” value (Digitaria sanguinalis; 50.0 g a.i./ha, 68 DAT) was 99%. For the same compound, the “Herbicidal effect (%) on Digitaria sanguinalis” value (Digitaria sanguinalis; 50.0 g a.i./ha, 107 DAT) was 99%, the “Herbicidal effect (%) on Digitaria sanguinalis” value (Digitaria sanguinalis; 50.0 g a.i./ha, 138 DAT) was 100% and the “Herbicidal effect (%) on Digitaria sanguinalis” value (Digitaria sanguinalis; 50.0 g a.i./ha, 180 DAT) was 100%. The “Herbicidal effect (%) on Digitaria sanguinalis” value (Digitaria sanguinalis; 100.0 g a.i./ha, 35 DAT) was 96%, the “Herbicidal effect (%) on Digitaria sanguinalis” value (Digitaria sanguinalis; 100.0 g a.i./ha, 56 DAT) was 99% and the “Herbicidal effect (%) on Digitaria sanguinalis” value (Digitaria sanguinalis; 100.0 g a.i./ha, 68 DAT) was 99%. The “Herbicidal effect (%) on Digitaria sanguinalis” value (Digitaria sanguinalis; 100.0 g a.i./ha, 107 DAT) was 99%, the “Herbicidal effect (%) on Digitaria sanguinalis” value (Digitaria sanguinalis; 100.0 g a.i./ha, 138 DAT) was 99% and the “Herbicidal effect (%) on Digitaria sanguinalis” value (Digitaria sanguinalis; 100.0 g a.i./ha, 180 DAT) was 99%. For the same compound, the “Herbicidal effect (%) on Digitaria sanguinalis” value (Digitaria sanguinalis; 200.0 g a.i./ha, 35 DAT) was 98%, the “Herbicidal effect (%) on Digitaria sanguinalis” value (Digitaria sanguinalis; 200.0 g a.i./ha, 56 DAT) was 99% and the “Herbicidal effect (%) on Digitaria sanguinalis” value (Digitaria sanguinalis; 200.0 g a.i./ha, 68 DAT) was 99%. For the same compound, the “Herbicidal effect (%) on Digitaria sanguinalis” value (Digitaria sanguinalis; 200.0 g a.i./ha, 107 DAT) was 100%.
